Experimental data reported in patent US9302999B2, “Substituted triazoles as herbicides” (E. I. DU PONT DE NEMOURS AND COMPANY, priority 2012, dated 2016).

How the values were obtained:
Format in all cases: in vivo
[1] = test system: sedge, umbrella (small-flower umbrella sedge, Cyperus difformis); experiment: Test C flooded paddy test: sedge, umbrella; details: Flood (flooded paddy test), visual rating after 13 to 15 days, scale 0 to 100 (0 no effect, 100 complete control)
Description: (§1) Plant species in the flooded paddy test consisted of rice (Oryza sativa), sedge, umbrella (small-flower umbrella sedge, Cyperus difformis), ducksalad (Heteranthera limosa) and barnyardgrass (Echinochloa crus-galli) grown to the 2-leaf stage for testing. At time of treatment, test pots were flooded to 3 cm above the soil surface, treated by application of test compounds directly to the paddy water, and then maintained at that water depth for the duration of the test.
(§2) Treated plants and controls were maintained in a greenhouse for 13 to 15 days, after which time all species were compared to controls and visually evaluated. Plant response ratings, summarized in Table C, are based on a scale of 0 to 100 where 0 is no effect and 100 is complete control. A dash (-) response means no test result.

[2] = test system: barnyardgrass (Echinochloa crus-galli); experiment: Test A pre-/postemergence: barnyardgrass; details: for Barnyardgrass plant response rating: Postemergence; for Plant response rating, Barnyardgrass: Preemergence
Outline: (§3)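 Plants in loam–sand blend were treated with test chemicals in non-phytotoxic solvent with surfactant, either as preemergence directed soil spray or postemergence at 2–10 cm, one- to two-leaf stage. After about ten days in greenhouse, injury was rated visually against untreated controls on a 0–100 scale (100 = complete control).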

[3] = test system: wheat (Triticum aestivum); experiment: Test A pre-/postemergence: wheat; details: for Wheat plant response rating: Postemergence; for Plant response rating, Wheat: Preemergence
Outline: as §3

[4] = test system: pigweed (Amaranthus retroflexus); experiment: Test A pre-/postemergence: pigweed; details: for Pigweed plant response rating: Postemergence; for Plant response rating, Pigweed: Preemergence
Outline: as §3

[5] = test system: morningglory (Ipomoea spp.); experiment: Test A pre-/postemergence: morningglory; details: for Morningglory plant response rating: Postemergence; for Plant response rating, Morningglory: Preemergence
Outline: as §3

[6] = test system: rice (Oryza sativa); experiment: Test C flooded paddy test: rice; details: Flood (flooded paddy test), visual rating after 13 to 15 days, scale 0 to 100 (0 no effect, 100 complete control)
Description: as §1, §2

[7] = test system: velvetleaf (Abutilon theophrasti); experiment: Test A pre-/postemergence: velvetleaf; details: for Velvetleaf plant response rating: Postemergence; for Plant response rating, Velvetleaf: Preemergence
Outline: as §3

[8] = test system: ducksalad (Heteranthera limosa); experiment: Test C flooded paddy test: ducksalad; details: Flood (flooded paddy test), visual rating after 13 to 15 days, scale 0 to 100 (0 no effect, 100 complete control)
Description: as §1, §2

[9] = test system: foxtail, giant (giant foxtail, Setaria faberii); experiment: Test A pre-/postemergence: foxtail, giant; details: for Foxtail, Giant plant response rating: Postemergence; for Plant response rating, Foxtail, Giant: Preemergence
Outline: as §3

[10] = test system: crabgrass, large (large crabgrass, Digitaria sanguinalis); experiment: Test A pre-/postemergence: crabgrass, large; details: for Crabgrass, Large plant response rating: Postemergence; for Plant response rating, Crabgrass, Large: Preemergence
Outline: as §3

[11] = test system: corn (Zea mays); experiment: Test A pre-/postemergence: corn; details: for Corn plant response rating: Postemergence; for Plant response rating, Corn: Preemergence
Outline: as §3

[12] = test system: barnyardgrass (Echinochloa crus-galli); experiment: Test C flooded paddy test: barnyardgrass; details: Flood (flooded paddy test), visual rating after 13 to 15 days, scale 0 to 100 (0 no effect, 100 complete control)
Description: as §1, §2

[13] = 125 g ai/ha, 0 to 100 scale, 0 is no effect, 100 is complete control
[14] = 500 g ai/ha, visual rating on 0 to 100 scale (0 no effect, 100 complete control), approximately ten days
[15] = 125 g ai/ha, 0 to 100 scale (0 no effect, 100 complete control)
[16] = 500 g ai/ha, 0 to 100 scale, 0 is no effect, 100 is complete control

Cc1nn(-c2ccc(F)cc2)nc1Cn1ccc(C(F)(F)F)n1 [Compound 2]
Plant response rating, Sedge, Umbrella ([1]; 62 g ai/ha): 0
Plant response rating, Sedge, Umbrella ([1]; 250 g ai/ha): 70
Barnyardgrass plant response rating [2, 13]: 0
Barnyardgrass plant response rating [2, 14]: 10
Plant response rating, Barnyardgrass [2, 15]: 0
Plant response rating, Barnyardgrass [2, 16]: 10
Wheat plant response rating [3, 13]: 0
Wheat plant response rating [3, 14]: 10
Plant response rating, Wheat [3, 15]: 0
Plant response rating, Wheat [3, 16]: 0
Pigweed plant response rating [4, 13]: 30
Pigweed plant response rating [4, 14]: 90
Plant response rating, Pigweed [4, 15]: 0
Plant response rating, Pigweed [4, 16]: 60
Morningglory plant response rating [5, 13]: 10
Morningglory plant response rating [5, 14]: 20
Plant response rating, Morningglory [5, 15]: 0
Plant response rating, Morningglory [5, 16]: 0
Plant response rating, Rice ([6]; 62 g ai/ha): 0
Plant response rating, Rice ([6]; 250 g ai/ha): 0
Velvetleaf plant response rating [7, 13]: 0
Velvetleaf plant response rating [7, 14]: 0
Plant response rating, Velvetleaf [7, 15]: 0
Plant response rating, Velvetleaf [7, 16]: 0
Plant response rating, Ducksalad ([8]; 62 g ai/ha): 0
Plant response rating, Ducksalad ([8]; 250 g ai/ha): 0
Foxtail, Giant plant response rating [9, 13]: 10
Foxtail, Giant plant response rating [9, 14]: 20
Plant response rating, Foxtail, Giant [9, 15]: 10
Plant response rating, Foxtail, Giant [9, 16]: 50
Crabgrass, Large plant response rating [10, 13]: 10
Crabgrass, Large plant response rating [10, 14]: 20
Plant response rating, Crabgrass, Large [10, 15]: 10
Plant response rating, Crabgrass, Large [10, 16]: 90
Corn plant response rating [11, 13]: 10
Corn plant response rating [11, 14]: 10
Plant response rating, Corn [11, 15]: 0
Plant response rating, Corn [11, 16]: 0
Plant response rating, Barnyardgrass ([12]; 62 g ai/ha): 0
Plant response rating, Barnyardgrass ([12]; 250 g ai/ha): 0
